This passage reports IC50 results from patent US20250206758A1, “SUBSTITUTED BRIDGED RING INHIBITOR, PREPARATION METHOD THEREFOR AND APPLICATION THEREOF” (SUZHOU ZELGEN BIOPHARMACEUTICALS CO., LTD., priority 2022, published 2025).

A word on the IC50: it is the concentration at which inhibition is half-maximal.

Assay [1] relates to AsPC-1. The experiment in a line: Cell proliferation inhibition, AsPC-1 (CellTiter-Glo 3D, 7 days). In kind it is cell-based. To be noted: AsPC-1, 7 days. As for the experimental part: (§1) • (a) Resuscitating cells in T75 cell culture flask: • (b) When the cell confluence reaches 80-90%, subculturing the cells.
(§2) The diluted test compound was added to a 384-well cell culture plate with a nanoliter pipetting system, and duplicate wells were set up. An equal volume of culture medium was added to the positive control group; and an equal volume of DMSO was added to the negative control group, then centrifugation was conducted at 1000 rpm for 1 min at room temperature.
(§3) Cells were inoculated into a) 384-well culture plate, with an equal volume of cells added to the negative control group, and only an equal volume of culture medium added to the positive control group. The plate was centrifuged at 1000 rpm for 1 min at room temperature, and the final DMSO concentration of the compound was 0.5% at last. The plate was placed in a 37° C., 5% CO2 constant temperature incubator for 7 days.
(§4) 20 μL/well of CellTiter-Glo® 3D to b) was added to 384-well cell culture plate, and the plate was shook at 320 rpm for 20 min in the dark, and incubated at room temperature in the dark for 2 hrs.
(§5) The luminescence value was read using an Envision multi-functional microplate reader.
(§6) The inhibition rate (IR) of the test compound was calculated using the following formula: IR (%)=(1−(RLU compound−RLU blank control)/(RLU meidum control−RLU blank control))*100%. The inhibition rates of different concentrations of compounds were calculated in Excel, and then the inhibition curves were plotted and the related parameters (including the minimum inhibition rate, maximum inhibition rate and IC50) were calculated using GraphPad Prism software.
For orientation: ATP-based viability assays read luminescence as a measure of living cells.

Assay [2] has as its system GP2D. Put plainly: Cell proliferation inhibition, GP2D (CellTiter-Glo 3D, 7 days). In kind it is cell-based. On the procedure:
as §1, §2, §3, §4, §5, §6

Counter-ions that a name gives are not always drawn. Like-named read-outs stand apart in the source and are kept apart here. Some results are limits rather than exact numbers.

For `COc1c(-c2c(F)c(N)cc(C)c2C(F)(F)F)ncc2c(N3C[C@H]4CC[C@@H](C3)N4)nc(OC[C@@]34CCCN3C[C@@]3(CC3(F)F)C4)nc12` [Example 30, 3-(4-((1R,5S)-3,8-diazabicyclo[3.2.1]octan-3-yl)-2-(((1S,7a'S)-2,2-difluorodihydro-1′H,3′H-spiro[cyclopropan-1,2′-pyrrolizin]-7a′(5′H)-yl)methoxy)-8-methoxypyridino[4,3-d]pyrimidin-7-yl)-2-fluoro-5-methyl-4-(trifluoromethyl)aniline], the IC50 in assay [1] (Homo sapiens, ASPC1, 168 h) was over 1000 nM; in assay [2] (168 h) it was over 100 nM.
For `C#Cc1c(F)ccc2cc(O)cc(-c3ncc4c(N5C[C@H]6CC[C@@H](C5)N6)nc(OC[C@]56C[C@H](F)CN5C[C@]5(CC5(F)F)C6)nc4c3F)c12` [Example 15F, 4-(4-((1R,5S)-3,8-diazabicyclo[3.2.1]octan-3-yl)-8-fluoro-2-(((1R,6'S,7a'S)-2,2,6′-trifluorodihydro-1′H,3′H-spiro[cyclopropan-1,2′-pyrrolizin]-7a′(5′H)-yl)methoxy)pyridino[4,3-d]pyrimidin-7-yl)-5-ethynyl-6-fluoronaphthalen-2-ol], in that order: over 1000 nM and over 100 nM.
Take `Fc1c(-c2c(C(F)(F)F)ccc3[nH]ncc23)ncc2c(N3CC4CCC(C3)N4)nc(OC[C@@]34CCCN3C[C@@]3(CC3(F)F)C4)nc12` [Example 33, (1S,7a'S)-7a′-(((4-((1R,5S)-3,8-diazabicyclo[3.2.1]octan-3-yl)-8-fluoro-7-(5-(trifluoromethyl)-1H-indazol-4-yl)pyridino[4,3-d]pyrimidin-2-yl)oxy)methyl)-2,2-bifluorotetrahydro-1′H,3′H-spiro[cyclopropan-1,2′-pyrrolizin]]: the IC50 was over 1000 nM in assay [1] (Homo sapiens, ASPC1, 168 h) and over 100 nM in assay [2] (168 h).
Taken in the same sequence, the figures for `Nc1nc2c(-c3ncc4c(N5C[C@H]6CC[C@@H](C5)N6)nc(OC[C@@]56CCCN5C[C@@]5(CC5(F)F)C6)nc4c3F)ccc(F)c2s1` [Example 23, 4-(4-((1R,5S)-3,8-diazabicyclo[3.2.1]octan-3-yl)-2-(((1S,7a'S)-2,2-difluorodihydro-1′H,3′H-spiro[cyclopropan-1,2′-pyrrolizin]-7a′(5′H)-yl)methoxy)-8-fluoropyridino[4,3-d]pyrimidin-7-yl)-7-fluorobenzo[d]thiazol-2-amine] were over 1000 nM and over 100 nM.
Taken in the same sequence, the figures for `C#Cc1c(F)ccc2cc(O)cc(-c3ncc4c(N5CC6CCC(C5)N6)nc(OCC56CC(F)(F)CCN5CC5(CC5)C6)nc4c3F)c12` [Example 13, 4-(4-((1R,5S)-3,8-diazabicyclo[3.2.1]octan-3-yl)-2-((7′,7′-difluorotetrahydro-3′-H-spiro[cyclopropan-1,2′-pyrrolizin]-8a′(1′H)-yl)methoxy)-8-fluoropyridino[4,3d]pyrimidin-7-yl)-5-ethynyl-6-fluoronaphthalen-2-ol trifluoroacetate] were 210 nM and 42.8 nM.
Taken in the same sequence, the figures for `C#Cc1c(F)ccc2cc(O)cc(-c3ncc4c(N5C[C@H]6CC[C@@H](C5)N6)nc(OC[C@]56CCC7(CC7)N5C[C@@H](F)C6)nc4c3F)c12` (relative stereo) [Example 12A, 4-(4-((1R,5S)-3,8-diazabicyclo[3.2.1]octan-3-yl)-8-fluoro-2-(((trans)-6′-fluorotetrahydrospiro[cyclopropan-1,3′-pyrrolizin]-7a′(5′H)-yl)methoxy)pyridino[4,3-d]pyrimidin-7-yl)-5-ethynyl-6-fluoronaphthalen-2-ol] were 24.8 nM and 3.07 nM.
“(1S,7a'S)-7a′-(((4-(1R,5S)-3,8-diazabicyclo[3.2.1]octan-3-yl)-7-(8-ethynyl-7-fluoronaphthol-1-yl)-8-fluoropyridino[4,3-d]pyrimidin-2-yl)oxy)methyl)-2,2-difluorodihydro-1′H,3′H-spiro[cyclopropan-1,2′-pyrrolizin] [Example 21]”: the IC50 in assay [1] worked out at 19.1 nM; in assay [2], 4.92 nM.
Regarding `Cc1cc(N)nc(-c2ncc3c(N4CC5CCC(C4)N5)nc(OC[C@@]45CCCN4C[C@@]4(CC4(F)F)C5)nc3c2F)c1C(F)(F)F` [Example 18, 6-(4-((1R,5S)-3,8-diazabicyclo[3.2.1]octan-3-yl)-2-(((trans)-2,2-difluorodihydro-1′H,3′H-spiro[cyclopropan-1,2′-pyrrolizin]-7a′(5′H)-yl)methoxy)-8-fluoropyridino[4,3d]pyrimidin-7-yl)-4-methyl-5-(trifluoromethyl)pyridin-2-amine], the IC50 came out at 307 nM in assay [1] (Homo sapiens, ASPC1, 168 h) and 9.83 nM in assay [2] (168 h).
For `C#Cc1c(F)ccc2cc(O)cc(-c3ncc4c(N5CCC6CCC(C5)N6)nc(OC[C@@]56CCCN5C[C@@]5(CC5(F)F)C6)nc4c3F)c12` (stereo partly drawn) [Example 28, 4-(4-(3,9-diazabicyclo[4.2.1]nonan-3-yl)-2-(((1S,7a'S)-2,2-difluorodihydro-1′H,3′H-spiro[cyclopropan-1,2′-pyrrolizin]-7a′(5′H)-yl)methoxy)-8-fluoropyridino[4,3-d]pyrimidin-7-yl)-5-ethynyl-6-fluoronaphthalen-2-ol], in that order: 188 nM and 19.8 nM.
For `Nc1cc(Cl)c(Cl)c(-c2ncc3c(N4C[C@H]5CC[C@@H](C4)N5)nc(OC[C@@]45CCCN4C[C@@]4(CC4(F)F)C5)nc3c2F)c1` [Example 47, 3-(4-((1R,5S)-3,8-diazabicyclo[3.2.1]octan-3-yl)-2-(((1S,7a'S)-2,2-difluorodihydro-1′H,3′H-spiro[cyclopropan-1,2′-pyrrolizin]-7a′(5′H)-yl)methoxy)-8-fluoropyridino[4,3-d]pyrimidin-7-yl)-4,5-dichloroaniline], the IC50 was determined as 62.3 nM in assay [1] (Homo sapiens, ASPC1, 168 h) and 4.54 nM in assay [2] (168 h).
Taken in the same sequence, the figures for `N#Cc1cc(N)cc(-c2ncc3c(N4C[C@H]5CC[C@@H](C4)N5)nc(OC[C@@]45CCCN4C[C@@]4(CC4(F)F)C5)nc3c2F)c1Cl` [Example 48, 3-(4-((1R,5S)-3,8-diazabicyclo[3.2.1]octan-3-yl)-2-(((1S,7a'S)-2,2-difluorodihydro-1′H,3′H-spiro[cyclopropan-1,2′-pyrrolizin]-7a′(5′H)-yl)methoxy)-8-fluoropyridino[4,3-d]pyrimidin-7-yl)-5-amino-2-chlorobenzonitrile] were 779 nM and 66 nM.
Taken in the same sequence, the figures for `CS(=O)(=O)Nc1cc(Cl)c(C(F)(F)F)c(-c2ncc3c(N4C[C@H]5CC[C@@H](C4)N5)nc(OC[C@@]45CCCN4C[C@@]4(CC4(F)F)C5)nc3c2F)c1` [Example 39, N-(3-(4-((1R,5S)-3,8-diazabicyclo[3.2.1]octan-3-yl)-2-(((1S,7a'S)-2,2-difluorodihydro-1′H,3′H-spiro[cyclopropan-1,2′-pyrrolizin]-7a′(5′H)-yl)methoxy)-8-fluoropyridino[4,3-d]pyrimidin-7-yl)-5-chloro-4-(trifluoromethyl)phenyl)methanesulfonamide] were 521 nM and 38.3 nM.
Taken in the same sequence, the figures for `C#Cc1c(F)ccc2cc(O)cc(-c3ncc4c(N5C[C@H]6CC[C@@H](C5)N6)nc(OC[C@@]56C[C@@H](F)CN5CC5(CC5)C6)nc4c3F)c12` [Example 10B, 4-(4-((1R,5S)-3,8-diazabicyclo[3.2.1]octan-3-yl)-8-fluoro-2-(((6′R,7a′R)-6′-fluorodihydro-1′H,3′H-spiro[cyclopropan-1,2′-pyrrolizin]-7a′(5′H)-yl)methoxy)pyridino[4,3-d]pyrimidin-7-yl)-5-ethynyl-6-fluoronaphthalen-2-ol] were 17.3 nM and 0.51 nM.
